Laboratory results published in ChEMBL document CHEMBL1949663, “Effective and reversible DNA condensation induced by bifunctional molecules containing macrocyclic polyamines and naphthyl moieties” (Bioorg Med Chem, 2012).
Active and inactive are the calls of the source. The rule behind the calls is not given here.

Legend:
Nucleic Acid [1] = assay: Induction of Escherichia coli pUC18 DNA condensation at 300 uM after 5 mins by agarose gel electrophoresis; type: nucleic-acid assay
Nucleic Acid [2] = assay: Induction of Escherichia coli pUC18 DNA condensation at above 120 uM after 5 mins by agarose gel electrophoresis; type: nucleic-acid assay
Nucleic Acid [3] = assay: Induction of Escherichia coli pUC18 DNA condensation at 120 uM after 5 mins by agarose gel electrophoresis; type: nucleic-acid assay
Nucleic Acid [4] = assay: Induction of Escherichia coli pUC18 DNA condensation assessed as hydrodynamic diameter at 60 uM after 5 mins by dynamic light scattering analysis; type: nucleic-acid assay
Nucleic Acid [5] = assay: Reversible condensation of Escherichia coli pUC18 DNA assessed as release of condensed DNA at 120 uM incubated for 5 mins followed by addition of […] NaCl by agarose gel electrophoresis; type: nucleic-acid assay
Nucleic Acid [6] = assay: Induction of Escherichia coli pUC18 DNA condensation at 80 uM after 5 mins by agarose gel electrophoresis in presence of 10 to 400 mM NaCl; type: nucleic-acid assay
T98G = assay: Cytotoxicity against human T98G cells at 30 to 120 uM after 24 hrs by MTT assay; type: cell-based
Nucleic Acid [7] = assay: Induction of Escherichia coli pUC18 DNA condensation assessed as hydrodynamic diameter at 120 uM after 5 mins by dynamic light scattering analysis; type: nucleic-acid assay
Nucleic Acid [8] = assay: Induction of Escherichia coli pUC18 DNA condensation assessed as diameter of DNA nano particles at 120 uM after 5 mins by atomic force microscopy; type: nucleic-acid assay
Nucleic Acid [9] = assay: Binding affinity to calf thymus DNA assessed as fluorescence quenching after 2 mins by ethidium bromide displacement assay; type: nucleic-acid assay; conditions: Bos taurus
HepG2 = assay: Cytotoxicity against human HepG2 cells at 30 to 120 uM after 24 hrs by MTT assay; type: cell-based; conditions: hepg2, 24 h
Nucleic Acid [10] = assay: Intercalation at calf thymus DNA assessed as increase in viscosity by viscosity titration assay; type: nucleic-acid assay; conditions: Bos taurus
Nucleic Acid [11] = assay: Induction of Escherichia coli pUC18 DNA condensation assessed as diameter of DNA nano particles at 60 uM after 5 mins by atomic force microscopy; type: nucleic-acid assay
[12] = Cytotoxicity against human T98G cells assessed as cell viability at 120 uM after 24 hrs by MTT assay; type: cell-based; conditions: read-out: Activity
[13] = Cytotoxicity against human HepG2 cells assessed as cell viability at 120 uM after 24 hrs by MTT assay; type: cell-based; conditions: read-out: Activity

Compound	Activity (Nucleic Acid [1])	Activity (Nucleic Acid [3])	Activity (Nucleic Acid [4]) [nm]	Activity (Nucleic Acid [5])	Activity (Nucleic Acid [6])	Activity (Nucleic Acid [7]) [nm]	Activity (Nucleic Acid [8]) [nm]	Kb (Nucleic Acid [9]) [×10⁵ /M]	Activity (Nucleic Acid [10])	Activity (Nucleic Acid [11]) [nm]	also measured
c1ccc2c(CCCN3CCCNCCCNCCC3)cccc2c1	–	–	–	–	–	–	–	–	–	–	Activity (Nucleic Acid [2]): Active
c1ccc2c(CN3CCCNCCCNCCC3)cccc2c1	inactive	–	–	–	–	–	–	–	–	–	–
c1ccc2c(CC(Cn3cc(CN4CCCNCCCNCCC4)nn3)Cn3cc(CN4CCCNCCCNCCC4)nn3)cccc2c1	–	Active	181	Active	inactive	222	56	0.98	inactive	49	viability at 24 h, 120 µM [12]: 88%; viability at 24 h, 120 µM [13]: 64%
C1CNCCCN(CCCN2CCCNCCCNCCC2)CCCNC1	inactive	–	–	–	–	–	–	–	–	–	–

Second part, led by results:

Activity (Nucleic Acid [1])	Activity (Nucleic Acid [3])	Activity (Nucleic Acid [4]) [nm]	Activity (Nucleic Acid [5])	Activity (Nucleic Acid [6])	Activity (Nucleic Acid [7]) [nm]	Activity (Nucleic Acid [8]) [nm]	Kb (Nucleic Acid [9]) [×10⁵ /M]	Activity (Nucleic Acid [10])	Activity (Nucleic Acid [11]) [nm]	Compound	also measured
inactive	–	–	–	–	–	–	–	–	–	c1c(CN2CCCNCCCNCCC2)nnn1CCCn1cc(CN2CCCNCCCNCCC2)nn1	–
–	Active	105	Active	inactive	146	55	1.2	inactive	47	c1ccc2c(CC(CN3CCCNCCCNCCC3)CN3CCCNCCCNCCC3)cccc2c1	Activity (T98G): Toxic; Activity (HepG2): Toxic
